Numbered stars: 1 amine (or outer) side, 2 acyl side, 3 side chain; on linkers, the order of the positions; unused ones are H or OH. Square brackets hold non-standard residues; d marks the D form. Side chains are listed from the residue outwards. Peptide text beside a SMILES is read from it. * marks the point of attachment. Adipoyl(4R-palmitoylamino) = CCCCCCCCCCCCCCCC(=O)N[C@H](CCC(=O)*)CC(=O)O; γGlu = O=C(O)[C@H](CCC(=O)[*:2])N[*:1]; Stearoyl = CCCCCCCCCCCCCCCCCC(=O)*; AEEA = NCCOCCOCC(=O)O; Aib = CC(C)(N)C(=O)O
Assays:
human GIP receptor = target: T1, human GIP receptor (Homo sapiens, UniProt P48546); assay: cAMP response (HTRF) of HEK-293 cells stably expressing human GIP receptor; type: cell-based; details: Table 8; read-out: EC50 hGIP R
T1 construct: expressed in transfected cells; host or cells: HEK-293
T1 sequence (P48546 22-466): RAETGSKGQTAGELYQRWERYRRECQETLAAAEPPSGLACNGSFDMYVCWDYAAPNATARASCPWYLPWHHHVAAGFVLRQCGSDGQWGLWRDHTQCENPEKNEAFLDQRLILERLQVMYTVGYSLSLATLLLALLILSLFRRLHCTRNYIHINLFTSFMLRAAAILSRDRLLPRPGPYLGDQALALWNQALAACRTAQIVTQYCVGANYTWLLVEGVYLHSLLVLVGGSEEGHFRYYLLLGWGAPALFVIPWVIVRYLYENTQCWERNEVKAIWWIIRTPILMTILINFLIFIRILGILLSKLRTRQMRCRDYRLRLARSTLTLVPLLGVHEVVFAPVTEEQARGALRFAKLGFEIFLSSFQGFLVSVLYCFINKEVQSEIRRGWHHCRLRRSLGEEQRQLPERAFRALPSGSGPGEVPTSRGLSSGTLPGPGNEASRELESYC
Procedure: Agonism of compounds for the receptors was determined by functional assays measuring cAMP response of HEK-293 cell lines stably expressing human GLP-1, GIP or glucagon receptor.
(§1) cAMP content of cells was determined using a kit from Cisbio Corp. (cat. no. 62AM4PEJ) based on HTRF (Homogenous Time Resolved Fluorescence). For preparation, cells were split into T175 culture flasks and grown overnight to near confluency in medium (DMEM/10% FBS). Medium was then removed and cells washed with PBS lacking calcium and magnesium, followed by proteinase treatment with accutase (Sigma-Aldrich cat. no. A6964). Detached cells were washed and resuspended in assay buffer (1×HBSS; 20 mM HEPES, 0.1% BSA, 2 mM IBMX) and cellular density determined. They were then diluted to 400000 cells/ml and 25 μl-aliquots dispensed into the wells of 96-well plates. For measurement, 25 μl of test compound in assay buffer was added to the wells, followed by incubation for 30 minutes at room temperature. After addition of HTRF reagents diluted in lysis buffer (kit components), the plates were incubated for 1 hr, followed by measurement of the fluorescence ratio at 665/616 nm. In vitro potency of agonists was quantified by determining the concentrations that caused 50% activation of maximal response (EC50).
(§2) Potencies of peptidic compounds at the GLP-1, glucagon and GIP receptors were determined by exposing cells expressing human glucagon receptor (hGlucagon R), human GIP receptor (hGIP-R) or human GLP-1 receptor (hGLP-1 R) to the listed compounds at increasing concentrations and measuring the formed cAMP as described in Methods.

[1] = Thioflavin T (ThT) assay for physical stability (fibrillation); type: physicochemical; details: 3 mg/ml, 100 mM acetate pH 4.5 with m-cresol, 37° C. shaking
Outline: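 Peptides at 3 mg/ml final with 100 μM ThT final in 100 mM acetate pH 4.5 containing 2.7 mg/mL m-cresol, eight replicates. Stressed at 37° C by repeated cycles of 10 s shaking at 960 rpm and 50 s rest. Fluorescence read every 20 minutes; lag time in hours taken from the sigmoidal kinetic curve.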

human GLP-1 receptor = target: T2, human GLP-1 receptor (Homo sapiens, UniProt P43220); assay: cAMP response (HTRF) of HEK-293 cells stably expressing human GLP-1 receptor; type: cell-based; details: Table 8; read-out: EC50 hGLP-1R
T2 construct: expressed in transfected cells; host or cells: HEK-293
T2 sequence (P43220 24-463): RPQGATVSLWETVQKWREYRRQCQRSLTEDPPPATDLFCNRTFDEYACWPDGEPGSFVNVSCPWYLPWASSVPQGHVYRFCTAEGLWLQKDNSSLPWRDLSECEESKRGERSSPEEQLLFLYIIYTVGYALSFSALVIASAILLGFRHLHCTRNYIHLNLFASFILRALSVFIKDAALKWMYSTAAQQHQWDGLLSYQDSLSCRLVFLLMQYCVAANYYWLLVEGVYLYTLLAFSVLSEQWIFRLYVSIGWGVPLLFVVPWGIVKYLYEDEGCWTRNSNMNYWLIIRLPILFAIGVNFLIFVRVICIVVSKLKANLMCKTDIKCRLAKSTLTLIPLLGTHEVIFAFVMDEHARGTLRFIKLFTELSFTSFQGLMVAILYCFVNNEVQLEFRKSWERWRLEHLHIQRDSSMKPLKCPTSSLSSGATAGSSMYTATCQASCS
Procedure: as §1, with “temperature.” for “temperature. After addition of HTRF reagents diluted in lysis buffer (kit components), the plates were incubated for 1 hr, followed by measurement of the fluorescence ratio at 665/616 nm. In vitro potency of agonists was quantified by determining the concentrations that caused 50% activation of maximal response (EC50).”
as §2

human glucagon receptor = target: T3, human glucagon receptor (Homo sapiens, UniProt P47871); assay: cAMP response (HTRF) of HEK-293 cells stably expressing human glucagon receptor; type: cell-based; details: Table 8; read-out: EC50 hGlucagon R
T3 construct: expressed in transfected cells; host or cells: HEK-293
T3 sequence (P47871 26-477): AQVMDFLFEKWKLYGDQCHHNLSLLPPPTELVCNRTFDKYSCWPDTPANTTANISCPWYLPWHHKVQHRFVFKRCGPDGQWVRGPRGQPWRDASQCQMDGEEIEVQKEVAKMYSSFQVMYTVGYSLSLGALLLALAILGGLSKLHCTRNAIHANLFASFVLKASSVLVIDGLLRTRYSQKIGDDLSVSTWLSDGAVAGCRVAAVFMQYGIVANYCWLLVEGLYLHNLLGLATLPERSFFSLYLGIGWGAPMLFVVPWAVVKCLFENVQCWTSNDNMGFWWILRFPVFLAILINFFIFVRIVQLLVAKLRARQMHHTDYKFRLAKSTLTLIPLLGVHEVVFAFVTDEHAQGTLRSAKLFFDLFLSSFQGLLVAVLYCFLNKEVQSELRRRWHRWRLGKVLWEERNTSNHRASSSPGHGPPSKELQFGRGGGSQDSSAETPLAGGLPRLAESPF
Procedure: as §1, with “temperature.” for “temperature. After addition of HTRF reagents diluted in lysis buffer (kit components), the plates were incubated for 1 hr, followed by measurement of the fluorescence ratio at 665/616 nm. In vitro potency of agonists was quantified by determining the concentrations that caused 50% activation of maximal response (EC50).”
as §2

[2] = Chemical stability assessment, UPLC-UV purity loss in buffer system A; type: physicochemical; details: 1 mg/ml, 25 mM acetate buffer pH 4.5 with m-cresol
Procedure: Prior to the chemical stability measurement of a peptide batch, its purity was determined through UPLC/MS. For stability testing the target concentration was 1 mg pure compound/ml. Therefore solutions from solid samples were prepared in a buffer system with a concentration of 1 mg/mL compound based on the previously determined % purity:
Chemical stability buffer system A) 25 mM acetate buffer pH 4.5, 3 mg/mL L-Methionine, 2.7 mg/mL m-cresol, 18 mg/mL Glycerol 85% Chemical stability buffer system B) 25 mM phosphate buffer pH 6.0, 3 mg/mL L-Methionine, 2.7 mg/mL m-cresol, 18 mg/mL Glycerol 85%
Peptide solutions were filtered through […] pore size and filled into aliquots under aseptic conditions. At starting point, UPLC-UV was performed by injection of 2 μl of the undiluted sample.
For chemical stability testing, aliquots were stored for 28 days at 5 and 40° C. After this time course the samples were centrifuged for 15 min at 2500 RCF. Then 2 μl of the undiluted supernatant were analysed with UPLC-UV.
The chemical stability was rated through the relative loss of purity calculated by the equation: [(purity at starting point)−(purity after 28 days at X° C.)]/(purity at starting point)]*100%
The purity is calculated as
[(peak area peptide)/(total peak area)]*100%
Peptide samples were prepared in Chemical stability buffer system A and the stability was assessed as described in Methods.

CCCCCCCCCCCCCCCC(=O)N[C@@H](CCC(=O)NCCCC[C@H](NC(=O)[C@H](CC(C)C)NC(=O)[C@H](CCCCN)NC(=O)[C@H](CO)NC(=O)[C@H](CC(C)C)NC(=O)[C@H](CC(=O)O)NC(=O)[C@H](CO)NC(=O)[C@@H](NC(=O)[C@H](Cc1ccccc1)NC(=O)[C@@H](NC(=O)CNC(=O)[C@H](Cc1c[nH]cn1)NC(=O)C(C)(C)NC(=O)[C@@H](N)Cc1c[nH]cn1)[C@@H](C)O)[C@@H](C)O)C(=O)N[C@@H](CCC(=O)O)C(=O)N[C@@H](CCC(=O)O)C(=O)N[C@@H](CCC(N)=O)C(=O)N[C@@H](CCCNC(=N)N)C(=O)N[C@@H](CCC(N)=O)C(=O)N[C@@H](CCCCN)C(=O)N[C@@H](CCC(=O)O)C(=O)N[C@@H](Cc1ccccc1)C(=O)N[C@H](C(=O)N[C@@H](CCC(=O)O)C(=O)N[C@@H](Cc1c[nH]c2ccccc12)C(=O)N[C@@H](CC(C)C)C(=O)N[C@@H](CCCCN)C(=O)N[C@@H](C)C(=O)NCC(=O)NCC(=O)N1CCC[C@H]1C(=O)N1CCC[C@H]1C(=O)N[C@@H](CO)C(=O)NC(C)(C)C(=O)N[C@@H](CCCCN)C(=O)N1CCC[C@H]1C(=O)N1CCC[C@H]1C(=O)N1CCC[C@H]1C(=O)N[C@@H](CCCCN)C(N)=O)[C@@H](C)CC)C(=O)O [SEQ ID NO: 20, H-Aib-H-G-T-F-T-S-D-L-S-K-L-K[gGlu-Palm]-E-E-Q-R-Q-K-E-F-I-E-W-L-K-A-G-G-P-P-S-Aib-K-P-P-P-K-NH2]
EC50 (human GIP receptor): 1.9 pM | Lag time before increase [1]: >45 h

CCCCCCCCCCCCCCCCCC(=O)N[C@@H](CCC(=O)NCCCC[C@H](NC(=O)[C@H](CC(C)C)NC(=O)[C@H](CCCCN)NC(=O)[C@H](CO)NC(=O)[C@H](CC(C)C)NC(=O)[C@H](CC(=O)O)NC(=O)[C@H](CO)NC(=O)[C@@H](NC(=O)[C@H](Cc1ccccc1)NC(=O)[C@@H](NC(=O)CNC(=O)[C@H](Cc1c[nH]cn1)NC(=O)C(C)(C)NC(=O)[C@@H](N)Cc1c[nH]cn1)[C@@H](C)O)[C@@H](C)O)C(=O)N[C@@H](CCC(=O)O)C(=O)N[C@@H](CCC(=O)O)C(=O)N[C@@H](CCC(N)=O)C(=O)N[C@@H](CCCNC(=N)N)C(=O)N[C@@H](CCC(N)=O)C(=O)N[C@@H](CCCCN)C(=O)N[C@@H](CCC(=O)O)C(=O)N[C@@H](Cc1ccccc1)C(=O)N[C@H](C(=O)N[C@@H](CCC(=O)O)C(=O)N[C@@H](Cc1c[nH]c2ccccc12)C(=O)N[C@@H](CC(C)C)C(=O)N[C@@H](CCCCN)C(=O)N[C@@H](C)C(=O)NCC(=O)NCC(=O)N1CCC[C@H]1C(=O)N1CCC[C@H]1C(=O)N[C@@H](CO)C(=O)NC(C)(C)C(=O)N[C@@H](CCCCN)C(=O)N1CCC[C@H]1C(=O)N1CCC[C@H]1C(=O)N1CCC[C@H]1C(=O)N[C@@H](CCCCN)C(N)=O)[C@@H](C)CC)C(=O)O [SEQ ID NO: 21, H-Aib-H-G-T-F-T-S-D-L-S-K-L-K[gGlu-Stea]-E-E-Q-R-Q-K-E-F-I-E-W-L-K-A-G-G-P-P-S-Aib-K-P-P-P-K-NH2] (H-H[Aib]HGTFTSDLSKLK([γGlu-Stearoyl])EEQRQKEFIEWLKAGGPPS[Aib]KPPPK-NH2)
EC50 (human GIP receptor): 2.6 pM | Lag time before increase [1]: >45 h | EC50 (human GLP-1 receptor): 3.4 pM | EC50 (human glucagon receptor): 1.9 pM

CCCCCCCCCCCCCCCC(=O)N[C@H](CCC(=O)NCCOCCOCC(=O)N[C@@H](CCC(=O)NCCCC[C@H](NC(=O)[C@H](CC(C)C)NC(=O)[C@H](CCCCN)NC(=O)[C@H](CO)NC(=O)[C@H](CC(C)C)NC(=O)[C@H](CC(=O)O)NC(=O)[C@H](CO)NC(=O)[C@@H](NC(=O)[C@H](Cc1ccccc1)NC(=O)[C@@H](NC(=O)CNC(=O)[C@H](Cc1c[nH]cn1)NC(=O)C(C)(C)NC(=O)[C@@H](N)Cc1c[nH]cn1)[C@@H](C)O)[C@@H](C)O)C(=O)N[C@@H](CCC(=O)O)C(=O)N[C@@H](CCC(=O)O)C(=O)N[C@@H](CCC(N)=O)C(=O)N[C@@H](CCCNC(=N)N)C(=O)N[C@@H](CCC(N)=O)C(=O)N[C@@H](CCCCN)C(=O)N[C@@H](CCC(=O)O)C(=O)N[C@@H](Cc1ccccc1)C(=O)N[C@H](C(=O)N[C@@H](CCC(=O)O)C(=O)N[C@@H](Cc1c[nH]c2ccccc12)C(=O)N[C@@H](CC(C)C)C(=O)N[C@@H](CCCCN)C(=O)N[C@@H](C)C(=O)NCC(=O)NCC(=O)N[C@@H](Cc1c[nH]cn1)C(=O)N1CCC[C@H]1C(=O)N[C@@H](CO)C(=O)NC(C)(C)C(=O)N[C@@H](CCCCN)C(=O)N1CCC[C@H]1C(=O)N1CCC[C@H]1C(=O)N1CCC[C@H]1C(=O)N[C@@H](CCCCN)C(N)=O)[C@@H](C)CC)C(=O)O)CC(=O)O [SEQ ID NO: 22, H-Aib-H-G-T-F-T-S-D-L-S-K-L-K[gGlu-AEEA-gAAA-Palm]-E-E-Q-R-Q-K-E-F-I-E-W-L-K-A-G-G-H-P-S-Aib-K-P-P-P-K-NH2] (H-H[Aib]HGTFTSDLSKLK([γGlu-AEEA-Adipoyl(4R-palmitoylamino)])EEQRQKEFIEWLKAGGHPS[Aib]KPPPK-NH2)
EC50 (human GIP receptor): 1.1 pM | Lag time before increase [1]: >45 h | Chemical stability [relative purity loss 28 days 40° C.] (%) at pH 4.5 [2]: 9.5%

CCCCCCCCCCCCCCCC(=O)N[C@H](CCC(=O)NCCOCCOCC(=O)N[C@@H](CCC(=O)NCCCC[C@H](NC(=O)[C@H](CC(C)C)NC(=O)[C@H](CCCCN)NC(=O)[C@H](CO)NC(=O)[C@H](CC(C)C)NC(=O)[C@H](CC(=O)O)NC(=O)[C@H](CO)NC(=O)[C@@H](NC(=O)[C@H](Cc1ccccc1)NC(=O)[C@@H](NC(=O)CNC(=O)[C@H](Cc1c[nH]cn1)NC(=O)C(C)(C)NC(=O)[C@@H](N)Cc1c[nH]cn1)[C@@H](C)O)[C@@H](C)O)C(=O)N[C@@H](CCC(=O)O)C(=O)N[C@@H](CCC(=O)O)C(=O)N[C@@H](CCC(N)=O)C(=O)N[C@@H](CCCNC(=N)N)C(=O)N[C@@H](CCC(N)=O)C(=O)N[C@@H](CCCCN)C(=O)N[C@@H](CCC(=O)O)C(=O)N[C@@H](Cc1ccccc1)C(=O)N[C@H](C(=O)N[C@@H](CCC(=O)O)C(=O)N[C@@H](Cc1c[nH]c2ccccc12)C(=O)N[C@@H](CC(C)C)C(=O)N[C@@H](CCCCN)C(=O)N[C@@H](C)C(=O)N[C@H](C)C(=O)NCC(=O)N[C@@H](Cc1c[nH]cn1)C(=O)N1CCC[C@H]1C(=O)N[C@@H](CO)C(=O)NC(C)(C)C(=O)N[C@@H](CCCCN)C(=O)N1CCC[C@H]1C(=O)N1CCC[C@H]1C(=O)N1CCC[C@H]1C(=O)N[C@@H](CCCCN)C(N)=O)[C@@H](C)CC)C(=O)O)CC(=O)O [SEQ ID NO: 23, H-Aib-H-G-T-F-T-S-D-L-S-K-L-K[gGlu-AEEA-gAAA-Palm]-E-E-Q-R-Q-K-E-F-I-E-W-L-K-A-dAla-G-H-P-S-Aib-K-P-P-P-K-NH2] (H-H[Aib]HGTFTSDLSKLK([γGlu-AEEA-Adipoyl(4R-palmitoylamino)])EEQRQKEFIEWLKA[dA]GHPS[Aib]KPPPK-NH2)
EC50 (human GIP receptor): 1.5 pM | Lag time before increase [1]: >45 h | EC50 (human GLP-1 receptor): 1.4 pM | Chemical stability [relative purity loss 28 days 40° C.] (%) at pH 4.5 [2]: 8.6%

From patent US10538567B2, “Compounds as peptidic trigonal GLP1/glucagon/GIP receptor agonists” (priority 2016, dated 2020)
